# Measurements taken from US20080153896A1, “Polymorphic Forms of an HMG-CoA Reductase Inhibitor and Uses Thereof” (priority 2006, published 2008).
# Test: Stability (integrity) testing of amorphous and polymorphic form under storage conditions, RP-HPLC
# Format: physicochemical
# Design: Impurity RRT 1.104 / Impurity RRT 1.698: unit not given beside the values
# Experimental: The integrity of the different forms of the (3R, 5R)-7-[2-(4-fluorophenyl)-5-isopropyl-3-phenyl-4-[(4-hydroxymethylphenylamino)carbonyl]-pyrrol-1-yl]-3,5-dihydroxy-heptanoic acid, hemi calcium salt, was tested under different atmospheric conditions to determine the stability of the amorphous and polymorphic form of the drug in various storage environments. Reversed Phase-HPLC (RP-HPLC) was used to separate (3R, 5R)-7-[2-(4-fluorophenyl)-5-isopropyl-3-phenyl-4-[(4-hydroxymethylphenylamino)carbonyl]-pyrrol-1-yl]-3,5-dihydroxy-heptanoic acid, hemi calcium salt, from smaller molecules representing breakdown products as well as oxidized drug. The relative amount of the drug was reported as a percent of total absorption by UV. The total peak area of all UV absorption impurities was used to define total impurity of the drug. Impurities are defined by their relative retention time (RRT) compared to native drug. Samples were injected onto a C18 column using standard temperature, gradient and run-time conditions.
# The results of this integrity testing for the amorphous form of (3R, 5R)-7-[2-(4-fluorophenyl)-5-isopropyl-3-phenyl-4-[(4-hydroxymethylphenylamino)carbonyl]-pyrrol-1-yl]-3,5-dihydroxy-heptanoic acid, hemi calcium salt, is shown in Table 5.
# Three separate batches of polymorphic Form I of (3R, 5R)-7-[2-(4-fluorophenyl)-5-isopropyl-3-phenyl-4-[(4-hydroxymethylphenylamino)carbonyl]-pyrrol-1-yl]-3,5-dihydroxy-heptanoic acid, hemi calcium salt, were prepared and tested under the same atmospheric conditions described for the amorphous form.
# [1] = 25° C./60% RH 12M, hemi calcium salt
# [2] = 30° C./65% RH 1M, hemi calcium salt
# [3] = 30° C./65% RH 2M, hemi calcium salt
# [4] = 30° C./65% RH 3M, hemi calcium salt
# [5] = 30° C./65% RH 6M, hemi calcium salt
# [6] = 30° C./65% RH 9M, hemi calcium salt
# [7] = 30° C./65% RH 12M, hemi calcium salt
# [8] = 40° C./75% RH 1M, hemi calcium salt
# [9] = 40° C./75% RH 2M, hemi calcium salt
# [10] = 40° C./75% RH 3M, hemi calcium salt
# [11] = 40° C./75% RH 6M, hemi calcium salt
# [12] = Initial, listed as Batch 2 of Polymorphic Form I, hemi calcium salt
structure (smiles),measurement,setting,value
"CC(C)c1c(C(=O)Nc2ccc(CO)cc2)c(-c2ccccc2)c(-c2ccc(F)cc2)n1CC[C@@H](O)C[C@@H](O)CC(=O)[O-].CC(C)c1c(C(=O)Nc2ccc(CO)cc2)c(-c2ccccc2)c(-c2ccc(F)cc2)n1CC[C@@H](O)C[C@@H](O)CC(=O)[O-].[Ca+2] [PP00105, (3R, 5R)-7-[2-(4-fluorophenyl)-5-isopropyl-3-phenyl-4-[(4-hydroxymethylphenylamino)carbonyl]-pyrrol-1-yl]-3,5-dihydroxy-heptanoic acid, hemi calcium salt]",Impurity RRT 1.439,25° C./60% RH 12M,0.152
same,Impurity RRT 1.596,25° C./60% RH 12M,0.046
same,Impurity RRT 1.698,25° C./60% RH 12M,0.053
same,Assay,[1],98.25 % W/W
same,Highest Impurity,[1],0.407
same,Impurity RRT 0.935,[1],0.365
same,Impurity RRT 1.045,[1],0.407
same,Impurity RRT 1.640,[1],0.052
same,Total Impurity,[1],1.522
same,Water,[1],5.02 % W/W
same,Description,30° C./65% RH 1M,White
same,Impurity RRT 1.096,30° C./65% RH 1M,0.24
same,Impurity RRT 1.439,30° C./65% RH 1M,0.151
same,Impurity RRT 1.596,30° C./65% RH 1M,0.076
same,Impurity RRT 1.698,30° C./65% RH 1M,0.065
same,Water,30° C./65% RH 1M,4.16 % W/W
same,Assay,[2],98.23 % W/W
same,Highest Impurity,[2],0.444
same,Impurity RRT 0.935,[2],0.396
same,Impurity RRT 1.045,[2],0.444
same,Impurity RRT 1.64,[2],0.06
same,Total Impurity,[2],1.44
same,Description,30° C./65% RH 2M,White
same,Impurity RRT 1.096,30° C./65% RH 2M,0.242
same,Impurity RRT 1.183,30° C./65% RH 2M,0.063
same,Impurity RRT 1.439,30° C./65% RH 2M,0.165
same,Impurity RRT 1.596,30° C./65% RH 2M,0.074
same,Impurity RRT 1.698,30° C./65% RH 2M,0.069
same,Assay,[3],98.20 % W/W
same,Highest Impurity,[3],0.449
same,Impurity RRT 0.935,[3],0.411
same,Impurity RRT 1.045,[3],0.449
same,Impurity RRT 1.64,[3],0.063
same,Total Impurity,[3],1.54
same,Water,[3],4.16 % W/W
same,Description,30° C./65% RH 3M,White
same,Impurity RRT 1.096,30° C./65% RH 3M,0.229
same,Impurity RRT 1.439,30° C./65% RH 3M,0.158
same,Impurity RRT 1.596,30° C./65% RH 3M,0.074
same,Impurity RRT 1.698,30° C./65% RH 3M,0.062
same,Assay,[4],98.14 % W/W
same,Highest Impurity,[4],0.437
same,Impurity RRT 0.935,[4],0.399
same,Impurity RRT 1.045,[4],0.437
same,Impurity RRT 1.64,[4],0.058
same,Total Impurity,[4],1.42
same,Water,[4],5.02 % W/W
same,Description,30° C./65% RH 6M,White
same,Impurity RRT 1.096,30° C./65% RH 6M,0.218
same,Impurity RRT 1.439,30° C./65% RH 6M,0.156
same,Impurity RRT 1.596,30° C./65% RH 6M,0.070
same,Impurity RRT 1.698,30° C./65% RH 6M,0.063
same,Assay,[5],98.09 % W/W
same,Highest Impurity,[5],0.460
same,Impurity RRT 0.935,[5],0.409
same,Impurity RRT 1.045,[5],0.460
same,Impurity RRT 1.640,[5],0.054
same,Total Impurity,[5],1.430
same,Water,[5],4.96 % W/W
same,Description,30° C./65% RH 9M,White
same,Impurity RRT 1.096,30° C./65% RH 9M,0.232
same,Impurity RRT 1.183,30° C./65% RH 9M,0.036
same,Impurity RRT 1.439,30° C./65% RH 9M,0.182
same,Impurity RRT 1.596,30° C./65% RH 9M,0.053
same,Impurity RRT 1.698,30° C./65% RH 9M,0.048
same,Assay,[6],98.07 % W/W
same,Highest Impurity,[6],0.442
same,Impurity RRT 0.935,[6],0.404
same,Impurity RRT 1.045,[6],0.442
same,Impurity RRT 1.640,[6],0.058
same,Total Impurity,[6],1.455
same,Water,[6],5.10 % W/W
same,Description,30° C./65% RH 12M,White
same,Impurity RRT 0.138,30° C./65% RH 12M,0.200
same,Impurity RRT 1.096,30° C./65% RH 12M,0.192
same,Impurity RRT 1.183,30° C./65% RH 12M,0.048
same,Impurity RRT 1.439,30° C./65% RH 12M,0.163
same,Impurity RRT 1.596,30° C./65% RH 12M,0.065
same,Impurity RRT 1.698,30° C./65% RH 12M,0.045
same,Assay,[7],98.35 % W/W
same,Highest Impurity,[7],0.399
same,Impurity RRT 0.935,[7],0.399
same,Impurity RRT 1.045,[7],0.360
same,Impurity RRT 1.640,[7],0.048
same,Total Impurity,[7],1.520
same,Water,[7],4.87 % W/W
same,Description,40° C./75% RH 1M,White
same,Impurity RRT 1.096,40° C./75% RH 1M,0.244
same,Impurity RRT 1.439,40° C./75% RH 1M,0.153
same,Impurity RRT 1.596,40° C./75% RH 1M,0.080
same,Impurity RRT 1.698,40° C./75% RH 1M,0.062
same,Assay,[8],98.15 % W/W
same,Highest Impurity,[8],0.444
same,Impurity RRT 0.935,[8],0.404
same,Impurity RRT 1.045,[8],0.444
same,Impurity RRT 1.64,[8],0.061
same,Total Impurity,[8],1.45
same,Water,[8],4.71 % W/W
same,Description,40° C./75% RH 2M,White
same,Impurity RRT 1.096,40° C./75% RH 2M,0.234
same,Impurity RRT 1.183,40° C./75% RH 2M,0.072
same,Impurity RRT 1.439,40° C./75% RH 2M,0.175
same,Impurity RRT 1.596,40° C./75% RH 2M,0.079
same,Impurity RRT 1.698,40° C./75% RH 2M,0.065
same,Assay,[9],98.19 % W/W
same,Highest Impurity,[9],0.457
same,Impurity RRT 0.935,[9],0.416
same,Impurity RRT 1.045,[9],0.457
same,Impurity RRT 1.64,[9],0.066
same,Total Impurity,[9],1.56
same,Water,[9],4.35 % W/W
same,Description,40° C./75% RH 3M,White
same,Impurity RRT 1.096,40° C./75% RH 3M,0.229
same,Impurity RRT 1.439,40° C./75% RH 3M,0.165
same,Impurity RRT 1.596,40° C./75% RH 3M,0.078
same,Impurity RRT 1.698,40° C./75% RH 3M,0.06
same,Assay,[10],98.09 % W/W
same,Highest Impurity,[10],0.442
same,Impurity RRT 0.935,[10],0.413
same,Impurity RRT 1.045,[10],0.442
same,Impurity RRT 1.64,[10],0.056
same,Total Impurity,[10],1.44
same,Water,[10],4.45 % W/W
same,Description,40° C./75% RH 6M,White
same,Impurity RRT 0.138,40° C./75% RH 6M,0.270
same,Impurity RRT 1.096,40° C./75% RH 6M,0.217
same,Impurity RRT 1.439,40° C./75% RH 6M,0.146
same,Impurity RRT 1.596,40° C./75% RH 6M,0.073
same,Impurity RRT 1.698,40° C./75% RH 6M,0.052
same,Assay,[11],98.14 % W/W
same,Highest Impurity,[11],0.410
same,Impurity RRT 0.935,[11],0.377
same,Impurity RRT 1.045,[11],0.410
same,Impurity RRT 1.640,[11],0.045
same,Total Impurity,[11],1.590
same,Water,[11],5.45 % W/W
same,Description,Initial,White
same,Impurity RRT 1.096,Initial,0.229
same,Impurity RRT 1.439,Initial,0.168
same,Impurity RRT 1.596,Initial,0.075
same,Impurity RRT 1.698,Initial,0.062
same,Assay,[12],98.45 % W/W
same,Highest Impurity,[12],0.457
same,Impurity RRT 0.935,[12],0.413
same,Impurity RRT 1.045,[12],0.457
same,Impurity RRT 1.64,[12],0.057
same,Total Impurity,[12],1.46
same,Water,[12],4.92 % W/W
